# Results published in PubChem BioAssay AID1963972 (Molecular Pharmacology Branch, DTP, NCI, 2024).
# System: 945468-187-T-J2-PDC spheroids viability
# Experiment: Anticancer human tumor 945468-187-T-J2-PDC patient-derived rectal carcinoma cell line growth inhibition [PI3K]
# Conditions: spheroids with HUVEC and MSC; for IC50: curve of first compound; for viability, T/C: stronger effect = lower value
# Source text: Combinatorial screen of targeted agents with the PI3K inhibitors inavolisib, alpelisib, duvelisib, and copanlisib in multi-cell type tumor spheroids
# A high-throughput screen of multi-cell type tumor spheroids was designed to identify active combinations of targeted small molecules and PI3K pathway inhibitors. Complex spheroids include a stromal component modeled by human endothelial cells (HUVEC) and fibroblasts modeled by human mesenchymal stem cells (MSCs). The concentration ranges selected for each drug and investigational agent were based upon clinically achievable concentrations if the clinical Cmax of the agent was known.
# Compounds. The drugs and investigational agents: inavolisib (NSC800729), alpelisib (NSC765974), duvelisib (NSC772469), copanlisib (NSC816437), ipatasertib (NSC767898), afuresertib (NSC778305), talazoparib (NSC767125), sapanisertib (NSC764658), selumetinib (NSC741078), tovorafenib (DAY101, NSC766906), vemurafenib (NSC761431), ravoxertinib (NSC781343), sotorasib (NSC818433), MRTX1133 (NSC 836407), abemaciclib (NSC 768073), palbociclib (NSC758247), venetoclax (NSC 766270), SY5609 (NSC837396), enzalutamide (NSC755605), and darolutamide (NSC825331), were obtained from the National Cancer Institute (NCI) Developmental Therapeutics Program Chemical Repository. The FDA-approved anticancer drug set is available from the NCI Developmental Therapeutics Program. […] The stock solutions were prepared in dimethyl sulfoxide (DMSO, Sigma-Aldrich, St. Louis, MO, cat. D2650) at 800-fold the tested concentration and stored at -70 degrees C prior to their use. All drugs and investigational agents were tested over a range starting from a high concentration at or near the clinical Cmax and decreasing in half-log increments. If the clinical Cmax for an agent had not been determined, the highest concentration tested was 10 microM.
# Cell Culture. All cells were maintained in an incubator at 37 degrees C and 5% CO2 with 95% humidity. The PDC lines were cultured according to standard operating procedures established by the NCI PDMR (https://pdmr.cancer.gov/sops/default.htm). All PDCs were thawed and cultured in Matrigel-coated flasks prepared with a working solution of 1X Ham's F-12 nutrient mix, without supplementation (Invitrogen, Waltham, MA, cat. 11765054), 100 U/mL penicillin-streptomycin (Invitrogen, cat. 15140122), and 2.5% Matrigel (Corning Inc., Corning, NY, cat. 354248) for the first three passages. The 354836-022-R-J1-PDC, 475296-252-R-J1-PDC, and 997726-040-R-J2-PDC lines were cultured in 6A media, which includes advanced DMEM/F-12 (Thermo Fisher Scientific, cat. 12634028), 10 mM HEPES (Thermo Fisher Scientific, cat. 15630080), 1X GlutaMAX supplement (Thermo Fisher Scientific, cat. 35050061), 0.1 mg/mL primocin (InvivoGen, San Diego, CA, cat. ant-pm-2), 10% defined fetal bovine serum, heat inactivated (HyClone Laboratories Inc., Logan, UT, cat. SH30070.03HI), 50% L-WRN conditioned media (ATCC, cat. CRL-3276), 1.25 mM N-Acetyl-L-cysteine (Sigma-Aldrich, cat. A9165), 10 mM nicotinamide (Sigma-Aldrich, cat. N0636), 1X B-27 supplement (Thermo Fisher Scientific, cat. 17504044), 1X N-2 supplement (Thermo Fisher Scientific, cat. 17502048), and 10 microM Y-27632 dihydrochloride (Tocris Bioscience, Bristol, United Kingdom, cat. 1254). The 624824-186-R-J2-PDC line was cultured in 6C/Colon 1B media, which includes all 6A media components plus 50 ng/mL human EGF recombinant protein (Thermo Fisher Scientific, cat. PHG0311). […]
# [1] = second compound 0.00316 µM, first compound 0.0316 µM
# [2] = second compound 0.00316 µM, first compound 0.1 µM
# [3] = second compound 0.00316 µM, first compound 0.316 µM
# [4] = second compound 0.00316 µM, first compound 1 µM
# [5] = second compound 0.00316 µM, first compound 3.16 µM
# [6] = second compound 0.00316 µM, first compound 10 µM
# [7] = second compound 0.01 µM, first compound 0.0316 µM
# [8] = second compound 0.01 µM, first compound 0.1 µM
# [9] = second compound 0.01 µM, first compound 0.316 µM
# [10] = second compound 0.01 µM, first compound 1 µM
# [11] = second compound 0.01 µM, first compound 3.16 µM
# [12] = second compound 0.01 µM, first compound 10 µM
# [13] = second compound 0.0316 µM, first compound 0.0316 µM
# [14] = second compound 0.0316 µM, first compound 0.1 µM
# [15] = second compound 0.0316 µM, first compound 0.316 µM
# [16] = second compound 0.0316 µM, first compound 1 µM
# [17] = second compound 0.0316 µM, first compound 3.16 µM
# [18] = second compound 0.0316 µM, first compound 10 µM
# [19] = second compound 0.1 µM, first compound 0.0316 µM
# [20] = second compound 0.1 µM, first compound 0.1 µM
# [21] = second compound 0.1 µM, first compound 0.316 µM
# [22] = second compound 0.1 µM, first compound 1 µM
# [23] = second compound 0.1 µM, first compound 3.16 µM
# [24] = second compound 0.1 µM, first compound 10 µM
# [25] = second compound 0.316 µM, first compound 0.0316 µM
# [26] = second compound 0.316 µM, first compound 0.1 µM
# [27] = second compound 0.316 µM, first compound 0.316 µM
# [28] = second compound 0.316 µM, first compound 1 µM
# [29] = second compound 0.316 µM, first compound 3.16 µM
# [30] = second compound 0.316 µM, first compound 10 µM
# [31] = second compound 1 µM, first compound 0.0316 µM
# [32] = second compound 1 µM, first compound 0.1 µM
# [33] = second compound 1 µM, first compound 0.316 µM
# [34] = second compound 1 µM, first compound 1 µM
# [35] = second compound 1 µM, first compound 3.16 µM
# [36] = second compound 1 µM, first compound 10 µM
# 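Further: spheroids exposed to compounds for seven days before reading.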
compound,measurement,setting,value
CCCS(=O)(=O)Nc1ccc(F)c(C(=O)c2c[nH]c3ncc(-c4ccc(Cl)cc4)cc23)c1F + CC(Nc1ccc2c(c1)OCCn1cc(N3C(=O)OCC3C(F)F)nc1-2)C(N)=O,IC50,second compound 0.00316 µM,> 10 µM
same,IC50,second compound 0.01 µM,4.28 µM
same,IC50,second compound 0.0316 µM,5.45 µM
same,IC50,second compound 0.1 µM,6.98 µM
same,IC50,second compound 0.316 µM,5.9 µM
same,IC50,second compound 1 µM,5.88 µM
same,"viability, T/C",[1],115%
same,"viability, T/C",[2],115%
same,"viability, T/C",[3],113%
same,"viability, T/C",[4],97.1%
same,"viability, T/C",[5],74.7%
same,"viability, T/C",[6],53.6%
same,"viability, T/C",[7],113%
same,"viability, T/C",[8],115%
same,"viability, T/C",[9],105%
same,"viability, T/C",[10],77.1%
same,"viability, T/C",[11],74.8%
same,"viability, T/C",[12],7.68%
same,"viability, T/C",[13],103%
same,"viability, T/C",[14],98.8%
same,"viability, T/C",[15],98.8%
same,"viability, T/C",[16],92.1%
same,"viability, T/C",[17],89.2%
same,"viability, T/C",[18],6.32%
same,"viability, T/C",[19],92.3%
same,"viability, T/C",[20],109%
same,"viability, T/C",[21],107%
same,"viability, T/C",[22],92.8%
same,"viability, T/C",[23],90.2%
same,"viability, T/C",[24],32.3%
same,"viability, T/C",[25],83.4%
same,"viability, T/C",[26],88.8%
same,"viability, T/C",[27],85.3%
same,"viability, T/C",[28],85.8%
same,"viability, T/C",[29],78.1%
same,"viability, T/C",[30],26.1%
same,"viability, T/C",[31],78.2%
same,"viability, T/C",[32],81%
same,"viability, T/C",[33],77.4%
same,"viability, T/C",[34],87.9%
same,"viability, T/C",[35],80.3%
same,"viability, T/C",[36],24%
CCCS(=O)(=O)Nc1ccc(F)c(C(=O)c2c[nH]c3ncc(-c4ccc(Cl)cc4)cc23)c1F + COc1c(OCCCN2CCOCC2)ccc2c3n(c(=NC(=O)c4cnc(N)nc4)nc12)CCN3,IC50,second compound 0.00316 µM,5.78 µM
same,IC50,second compound 0.01 µM,6.43 µM
same,IC50,second compound 0.0316 µM,5.58 µM
same,IC50,second compound 0.1 µM,6.05 µM
same,IC50,second compound 0.316 µM,< 0.0316 µM
same,IC50,second compound 1 µM,< 0.0316 µM
same,"viability, T/C",[1],95.3%
same,"viability, T/C",[2],106%
same,"viability, T/C",[3],111%
same,"viability, T/C",[4],116%
same,"viability, T/C",[5],89.2%
same,"viability, T/C",[6],14.6%
same,"viability, T/C",[7],109%
same,"viability, T/C",[8],82%
same,"viability, T/C",[9],79.8%
same,"viability, T/C",[10],92.5%
same,"viability, T/C",[11],105%
same,"viability, T/C",[12],22.9%
same,"viability, T/C",[13],100%
same,"viability, T/C",[14],91.4%
same,"viability, T/C",[15],90.2%
same,"viability, T/C",[16],103%
same,"viability, T/C",[17],75.2%
same,"viability, T/C",[18],24.2%
same,"viability, T/C",[19],73.1%
same,"viability, T/C",[20],90.5%
same,"viability, T/C",[21],77.7%
same,"viability, T/C",[22],77.6%
same,"viability, T/C",[23],77.2%
same,"viability, T/C",[24],29%
same,"viability, T/C",[25],38.7%
same,"viability, T/C",[26],37%
same,"viability, T/C",[27],36.9%
same,"viability, T/C",[28],34%
same,"viability, T/C",[29],35.3%
same,"viability, T/C",[30],21.5%
same,"viability, T/C",[31],21.4%
same,"viability, T/C",[32],22.6%
same,"viability, T/C",[33],21.9%
same,"viability, T/C",[34],19.5%
same,"viability, T/C",[35],25.7%
same,"viability, T/C",[36],15.6%
